# Reference: patent US12071648B2, “Ex vivo model of inflamed human skin and uses thereof for screening anti-inflammatory compounds” (GENOSKIN, priority 2017, dated 2024)
# How the values were obtained:
# Format in all cases: cell-based, human
# IFNγ = IFNγ secretion by the InflammaSkin ex vivo model of inflamed skin, ELISA of culture media
# Method: (§1) Using a clamp, the skin biopsy is held flat, with the dermis on top. A needle with no dead volume is inserted into the biopsy from the side of the dermis using a 701N or 705N Hamilton syringe (for 8 mm or 15 mm diameter biopsies, respectively). 10 μL or 35 μL of the activation solution (50 ng/μL anti-CD3 antibody, 50 ng/μL anti-CD28 antibody, and 10 ng/mL IL-2) for biopsies of 8 or 15 mm diameter, respectively, are injected from the side of the biopsy to avoid damage to the epidermis.
# (§2) In WILLIAM'S E synthetic culture medium, the following supplements are added: 10 ng/mL IL-1β, 50 ng/mL IL-23, and 10 ng/mL TGFbeta. The culture is carried out for 7 days in a CO2 incubator at 37° C. The culture medium containing the supplements is changed daily.
# (§3) The cytokines IL-17A, IL-22, and IFNγ produced by the model were analyzed in the culture media by an ELISA assay using a specific detection kit from Meso Scale Discovery (U-PLEX TH17 Combo 2 Human Reference K15076K) and using a multiplex assay platform (MESO QuickPlex SQ 120).
# (§4) In order to test the relevance of the model of inflamed skin obtained by the method of the invention, compounds known for their anti-inflammatory effect were tested. These are betamethasone di-propionate and the PDE4 inhibitor. […]
# IL-22 [1] = assay: IL-22 secretion by the InflammaSkin ex vivo model of inflamed skin, ELISA of culture media
# Method: as §1, §2, §3, §4
# IL-17A = IL-17A secretion by the InflammaSkin ex vivo model of inflamed skin, ELISA of culture media
# Method: as §1, §2, §3, §4
# [2] = test system: ex vivo model of inflamed skin (InflammaSkin); assay: Histological analysis of the InflammaSkin model after topical treatment
# Method: as §1, §2
# The skin biopsy treated according to steps a) and b) of the method of the invention is dehydrated by an alcohol bath, and then passed through a xylene bath. A first bath in paraffin allows to replace the water previously contained in the skin explant by paraffin.
# Serial sections of a thickness varying from 4 to 5 μm are then made along the entire length of the paraffin block containing the sample.
# as §4
# TNFα = TNFα secretion by the InflammaSkin ex vivo model of inflamed skin
# [3] = test system: ex vivo model of inflamed skin (Hypo-InflammaSkin); assay: Histology analysis (hematoxylin and eosin) of the Hypo-InflammaSkin model after subcutaneous injection
# Method: In a second embodiment, the hypodermis is preserved. The biopsies (epidermis, dermis, and hypodermis), the thickness of which is about 1 cm, are then cut out using a metal punch. This second embodiment is for testing anti-inflammatory compounds by subcutaneous injection.
# (§5) In order to test the relevance of the model of inflamed skin obtained by the method of the invention (Hypo-InflammaSkin®), an antibody known for its anti-inflammatory effect was tested. This is the adalimumab anti-TNFα antibody. Biopsies of inflamed skin (Hypo-InflammaSkin®−I) with a thickness of 1 cm were obtained by the method of the invention. A subcutaneous injection (namely into the […]) of 50 nM adalimumab was performed at TO (prophylactic treatment, Hypo-InflammaSkin®−I+anti-TNFα−P) or after 3 days of ex vivo culture of the inflamed biopsy (therapeutic treatment, Hypo-InflammaSkin®−I+anti-TNFα−T). After 7 days of ex vivo culture, the culture media are taken, and skin biopsies are fixed in a 10% formalin solution and then embedded in paraffin blocks. Serial sections of a constant thickness of 5 μm of the biopsies are made. The morphological appearance of the skin biopsies is studied under optical microscopy using hematoxylin and eosin staining. The presence of psoriasin (S110A7) is identified by fluorescence microscopy (Leica DM 5000 microscope) using an anti-S100A7 antibody coupled to a fluorochrome. […]
# psoriasin (S100A7) = assay: Psoriasin detection by fluorescence microscopy in the Hypo-InflammaSkin model; details: inflamed biopsy treated by subcutaneous injection of 50 nM, 7 days of ex vivo culture
# Method: In order to test the relevance of the model of inflamed skin obtained by the method of the invention (Hypo-InflammaSkin®), an antibody known for its anti-inflammatory effect was tested. This is the adalimumab anti-TNFα antibody. Biopsies of inflamed skin (Hypo-InflammaSkin®−I) with a thickness of 1 cm were obtained by the method of the invention. A subcutaneous injection (namely into the […]) of 50 nM adalimumab was performed at TO (prophylactic treatment, Hypo-InflammaSkin®−I+anti-TNFα−P) or after 3 days of ex vivo culture of the inflamed biopsy (therapeutic treatment, Hypo-InflammaSkin®−I+anti-TNFα−T). After 7 days of ex vivo culture, the culture media are taken, and skin biopsies are fixed in a 10% formalin solution and then embedded in paraffin blocks. Serial sections of a constant thickness of 5 μm of the biopsies are made. The morphological appearance of the skin biopsies is studied under optical microscopy using hematoxylin and eosin staining. The presence of psoriasin (S110A7) is identified by fluorescence microscopy (Leica DM 5000 microscope) using an anti-S100A7 antibody coupled to a fluorochrome. The cell nuclei are marked with DAPI. Biopsies of non-inflamed skin (HypoSkin®−biopsies including the epidermis, dermis, and hypodermis) are used for control.
# IL-22 [4] = assay: IL-22 secretion by the Hypo-InflammaSkin model
# Method: as §3, §5
Compound,"IFNγ secretion (IFNγ; prophylactic treatment, topical 10 μL daily until 7th day of culture, compared to placebo control (FIG. 8A))","IFNγ secretion (IFNγ; therapeutic treatment, topical from 3 days of culture, daily until 7th day (FIG. 8B))","IL-22 secretion (IL-22 [1]; prophylactic treatment, topical 10 μL daily until 7th day of culture, compared to placebo control (FIG. 7A))","IL-22 secretion (IL-22 [1]; therapeutic treatment, topical from 3 days of culture, daily until 7th day (FIG. 7B))","IL-17A secretion (IL-17A; prophylactic treatment, topical 10 μL daily until 7th day of culture, compared to placebo control (FIG. 6A))","IL-17A secretion (IL-17A; therapeutic treatment, topical from 3 days of culture, daily until 7th day (FIG. 6B))",histological abnormalities in the epidermis ([2]; after 7 days of culture (FIG. 5 legend)),"integrity and structure of the skin, particularly the epidermis, and viability of epidermal cells ([2]; prophylactic treatment, compared to placebo controls (FIG. 5))","TNFα secretion (TNFα; prophylactic treatment, topical 10 μL daily until 7th day of culture, compared to placebo control (FIG. 9A))","TNFα secretion (TNFα; therapeutic treatment, topical from 3 days of culture, daily until 7th day (FIG. 9B))","integrity and structure of the skin, more particularly the epidermis, and epidermal cell viability ([3]; prophylactic treatment, subcutaneous injection of 50 nM at T0, 7 days of ex vivo culture (FIG. 13))","integrity and structure of the skin, more particularly the epidermis, and epidermal cell viability ([3]; therapeutic treatment, subcutaneous injection of 50 nM after 3 days of culture, 7 days of ex vivo culture (FIG. 13))",presence of psoriasin (psoriasin (S100A7)),"IL-22 secretion (IL-22 [4]; prophylactic treatment, subcutaneous injection of 50 nM at T0, compared to untreated inflamed biopsy (FIG. 14))","IL-22 secretion (IL-22 [4]; therapeutic treatment, subcutaneous injection of 50 nM after 3 days of culture, compared to untreated inflamed biopsy (FIG. 14))"
CCC(=O)OCC(=O)[C@@]1(OC(=O)CC)[C@@H](C)C[C@H]2[C@@H]3CCC4=CC(=O)C=C[C@]4(C)[C@@]3(F)[C@@H](O)C[C@@]21C [betamethasone di-propionate],strongly inhibited,inhibits IFNγ secretion,strongly inhibited,inhibits IL-22 secretion,strongly inhibited,inhibits IL-17A secretion,total absence of histological abnormalities in the epidermis,preserved,strongly inhibited,strongly inhibited,,,,,
adalimumab,,,,,,,,,,,preserved,preserved,almost undetectable,strongly inhibited,strongly inhibited
